Data on one compound can be found in ChEMBL document CHEMBL5532691, “Anti-cancer activity and mechanism of flurbiprofen organoselenium compound RY-1-92 in non-small cell lung cancer” (RSC Med Chem, 2024).

The data set relates to BEAS-2B. Put plainly: Cytotoxicity against human BEAS-2B cells assessed as reduction in cell viability at 25 uM measured after 48 hrs by MTT assay. It counts as toxicity, cell-based. A general note: Tetrazolium assays rely on reduction of a dye to a coloured formazan, in cell work by metabolically active cells.

The structures appear in SMILES notation.

Consider `O=c1[nH]cc(F)c(=O)[nH]1` [FLUOROURACIL], for which the Activity entry was “Toxic”.
